Legend:
[1] = DRUGMATRIX: Glutamate, AMPA radioligand binding (ligand: [3H] AMPA); format: cell membranes, Rattus norvegicus, Wistar, Cerebral cortex, Membrane; conditions: Not Active = under 50% inhibition at 10 µM
Melanocortin receptor 4 = Melanocortin receptor 4 (Homo sapiens, UniProt P32245); format: cell membranes, Membrane; conditions: hek293; note: in other assays of this panel Not Active means under 50% inhibition at 10 µM
[2] = target: T1, Muscarinic acetylcholine receptor M4 (Homo sapiens, UniProt P08173); format: cell membranes, CHO-K1, Membrane; conditions: for Ki: read-out: Ki; for all read-outs here: in other assays of this panel Not Active means under 50% inhibition at 10 µM
T1 sequence (P08173 whole entry): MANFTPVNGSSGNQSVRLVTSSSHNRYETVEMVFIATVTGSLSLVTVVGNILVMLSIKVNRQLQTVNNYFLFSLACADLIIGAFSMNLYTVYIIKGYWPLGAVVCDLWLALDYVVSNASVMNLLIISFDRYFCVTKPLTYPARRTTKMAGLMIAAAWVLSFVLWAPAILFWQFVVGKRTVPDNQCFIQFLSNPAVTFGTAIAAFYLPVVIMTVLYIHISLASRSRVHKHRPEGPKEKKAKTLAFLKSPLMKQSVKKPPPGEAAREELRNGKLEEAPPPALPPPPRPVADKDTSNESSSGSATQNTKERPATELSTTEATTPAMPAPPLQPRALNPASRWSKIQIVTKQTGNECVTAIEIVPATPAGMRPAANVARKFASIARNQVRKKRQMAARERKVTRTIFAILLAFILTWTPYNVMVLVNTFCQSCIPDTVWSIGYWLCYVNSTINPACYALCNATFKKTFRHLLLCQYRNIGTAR

Histamine H2 receptor = Histamine H2 receptor (Homo sapiens, UniProt P25021); format: cell membranes, CHO-K1, Membrane; note: in other assays of this panel Not Active means under 50% inhibition at 10 µM
[3] = target: Mitogen-activated protein kinase 3 (Homo sapiens, UniProt P27361); experiment: DRUGMATRIX: Protein Serine/Threonine Kinase, ERK1 enzyme inhibition (substrate: Myelin Basic Protein); set-up: species or system Escherichia coli; conditions: Not Active = under 50% inhibition at 10 µM
Mu-type opioid receptor = Mu-type opioid receptor (Homo sapiens, UniProt P35372); experiment: DRUGMATRIX: Opiate mu (OP3, MOP) radioligand binding (ligand: [3H] Diprenorphine); format: cell membranes, CHO-K1, Membrane; conditions: cho-k1; Not Active = under 50% inhibition at 10 µM
Mu-type opioid receptor, sequence (P35372 whole entry): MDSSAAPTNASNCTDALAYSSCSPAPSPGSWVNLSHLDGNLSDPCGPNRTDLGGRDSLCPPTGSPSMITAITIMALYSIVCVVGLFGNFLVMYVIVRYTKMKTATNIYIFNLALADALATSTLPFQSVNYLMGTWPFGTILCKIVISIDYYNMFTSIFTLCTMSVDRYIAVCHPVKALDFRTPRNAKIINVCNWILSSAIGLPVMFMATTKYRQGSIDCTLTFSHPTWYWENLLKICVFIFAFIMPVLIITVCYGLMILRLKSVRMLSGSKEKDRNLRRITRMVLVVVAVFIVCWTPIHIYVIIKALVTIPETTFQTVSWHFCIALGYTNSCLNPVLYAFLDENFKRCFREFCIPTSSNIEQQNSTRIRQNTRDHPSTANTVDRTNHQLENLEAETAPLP

Histamine H2 receptor, sequence (P25021 whole entry): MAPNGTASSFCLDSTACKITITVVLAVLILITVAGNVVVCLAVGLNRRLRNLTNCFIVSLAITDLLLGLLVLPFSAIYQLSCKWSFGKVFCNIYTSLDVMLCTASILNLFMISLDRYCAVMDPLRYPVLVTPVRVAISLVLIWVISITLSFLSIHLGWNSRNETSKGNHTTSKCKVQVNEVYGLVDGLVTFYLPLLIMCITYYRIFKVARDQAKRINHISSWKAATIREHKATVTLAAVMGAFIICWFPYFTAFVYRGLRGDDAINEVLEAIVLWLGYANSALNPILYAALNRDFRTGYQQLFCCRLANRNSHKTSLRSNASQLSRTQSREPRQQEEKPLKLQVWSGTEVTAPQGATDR
Mitogen-activated protein kinase 3, sequence (P27361 whole entry): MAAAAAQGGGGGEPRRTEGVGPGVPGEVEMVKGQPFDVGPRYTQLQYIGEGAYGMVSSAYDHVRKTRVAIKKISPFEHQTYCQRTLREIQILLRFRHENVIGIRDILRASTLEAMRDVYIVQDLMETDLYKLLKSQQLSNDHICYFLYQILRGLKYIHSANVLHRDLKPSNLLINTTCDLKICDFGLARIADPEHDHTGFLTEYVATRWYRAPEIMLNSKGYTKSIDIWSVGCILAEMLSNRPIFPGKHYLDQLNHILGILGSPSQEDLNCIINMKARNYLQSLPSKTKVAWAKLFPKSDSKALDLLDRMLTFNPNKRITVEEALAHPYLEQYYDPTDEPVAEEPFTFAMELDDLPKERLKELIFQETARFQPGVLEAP
Melanocortin receptor 4, sequence (P32245 whole entry): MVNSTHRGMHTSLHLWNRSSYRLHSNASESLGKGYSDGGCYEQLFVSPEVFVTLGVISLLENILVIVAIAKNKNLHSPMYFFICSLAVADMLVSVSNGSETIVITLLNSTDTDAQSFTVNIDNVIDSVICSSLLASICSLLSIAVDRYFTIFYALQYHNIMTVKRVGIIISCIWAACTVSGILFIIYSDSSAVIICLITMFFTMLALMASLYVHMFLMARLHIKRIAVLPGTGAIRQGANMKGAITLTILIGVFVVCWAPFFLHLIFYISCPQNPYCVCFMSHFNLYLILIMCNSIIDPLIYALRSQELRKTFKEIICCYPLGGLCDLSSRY

SMILES	IC50 [1]	Ki [1]	IC50 (Melanocortin receptor 4)	IC50 ([2]; cho-k1)	IC50 (Histamine H2 receptor; cho-k1)	IC50 [3]	IC50 (Mu-type opioid receptor)	IC50 ([2]; read-out: IC50) [nM]	Ki [2] [nM]	IC50 (Histamine H2 receptor; read-out: IC50) [nM]	Ki (Histamine H2 receptor; read-out: Ki) [nM]
CN(C)C(=O)Oc1cccc([N+](C)(C)C)c1.[Br-] [NEOSTIGMINE BROMIDE]	Not Active	Not Active	Not Active	Not Active	Not Active	Not Active	Not Active	–	–	–	–
NC(=O)c1cccnc1 [NIACINAMIDE]	Not Active	Not Active	Not Active	Not Active	Not Active	Not Active	Not Active	–	–	–	–
CS(=O)(=O)Nc1ccc([N+](=O)[O-])cc1Oc1ccccc1 [NIMESULIDE]	Not Active	Not Active	Not Active	Not Active	Not Active	Not Active	Not Active	–	–	–	–
CN1C(=O)CN=C(c2ccccc2)c2cc([N+](=O)[O-])ccc21 [NIMETAZEPAM]	Not Active	Not Active	Not Active	Not Active	Not Active	Not Active	Not Active	–	–	–	–
COc1ccc2c(c1OC)C(=O)O[C@@H]2[C@H]1c2c(cc3c(c2OC)OCO3)CCN1C [NOSCAPINE]	Not Active	Not Active	Not Active	Not Active	Not Active	Not Active	Not Active	–	–	–	–
NC(=O)N1c2ccccc2CC(=O)c2ccccc21 [OXCARBAZEPINE]	Not Active	Not Active	Not Active	Not Active	Not Active	Not Active	Not Active	–	–	–	–
COc1ccnc(C[S+]([O-])c2nc3ccc(OC(F)F)cc3[nH]2)c1OC (stereo not given) [PANTOPRAZOLE]	Not Active	Not Active	Not Active	Not Active	Not Active	Not Active	Not Active	–	–	–	–
N=C(N)c1ccc(OCCCCCOc2ccc(C(=N)N)cc2)cc1 [PENTAMIDINE]	Not Active	Not Active	Not Active	–	Not Active	Not Active	Not Active	1580	220	–	–
NNCCc1ccccc1 [PHENELZINE]	Not Active	Not Active	Not Active	Not Active	Not Active	Not Active	Not Active	–	–	–	–
CCc1ccc(CCOc2ccc(CC3SC(=O)NC3=O)cc2)nc1 (stereo not given) [PIOGLITAZONE]	Not Active	Not Active	Not Active	Not Active	Not Active	Not Active	Not Active	–	–	–	–
CCCNC(C)C(=O)Nc1ccccc1C (stereo not given) [PRILOCAINE]	Not Active	Not Active	Not Active	Not Active	Not Active	Not Active	Not Active	–	–	–	–
CCN(CC)CCNC(=O)c1ccc(N)cc1 [PROCAINAMIDE]	Not Active	Not Active	Not Active	Not Active	Not Active	Not Active	Not Active	–	–	–	–
CCN(CC)CCCC(C)Nc1c2ccc(Cl)cc2nc2ccc(OC)cc12 (stereo not given) [QUINACRINE]	Not Active	Not Active	Not Active	–	–	Not Active	Not Active	1980	277	3540	3480
C[C@]12C=CC(=O)C=C1CC[C@H]1[C@@H]3C[C@@H](O)[C@](O)(C(=O)CO)[C@@]3(C)C[C@H](O)[C@@]12F [TRIAMCINOLONE]	Not Active	Not Active	Not Active	Not Active	Not Active	Not Active	Not Active	–	–	–	–
CC[C@]1(O)C[C@@H]2CN(CCc3c([nH]c4ccccc34)[C@@](C(=O)OC)(c3cc4c(cc3OC)N(C)[C@H]3[C@@](O)(C(N)=O)[C@H](O)[C@]5(CC)C=CCN6CC[C@]43[C@@H]65)C2)C1 [VINDESINE]	Not Active	Not Active	Not Active	Not Active	Not Active	Not Active	Not Active	–	–	–	–
CCN(C(C)=O)c1cccc(-c2ccnc3c(C#N)cnn23)c1 [ZALEPLON]	Not Active	Not Active	Not Active	Not Active	Not Active	Not Active	Not Active	–	–	–	–

Source: ChEMBL document CHEMBL1909046, “DrugMatrix in vitro pharmacology data”
